Experimental data published in PMC4051630, “A Comparison of Protein Kinases Inhibitor Screening Methods Using Both Enzymatic Activity and Binding Affinity Determination” (PLoS ONE, 2014).

Assays:
Test in all cases: Differential Scanning Fluorimetry (DSF) Tm shift
Type in all cases: binding
FES Catalytic Domain = molecular target: T1, FES Catalytic Domain (Homo sapiens, UniProt P07332); details: 2 µM protein, 10 µM inhibitor, average of 3 experiments, each in duplicate
T1 construct: For all of them, we expressed and purified the catalytic domain separately; His-tag; made in house; host or cells: Escherichia coli
T1 sequence (P07332 561-822 limits assumed): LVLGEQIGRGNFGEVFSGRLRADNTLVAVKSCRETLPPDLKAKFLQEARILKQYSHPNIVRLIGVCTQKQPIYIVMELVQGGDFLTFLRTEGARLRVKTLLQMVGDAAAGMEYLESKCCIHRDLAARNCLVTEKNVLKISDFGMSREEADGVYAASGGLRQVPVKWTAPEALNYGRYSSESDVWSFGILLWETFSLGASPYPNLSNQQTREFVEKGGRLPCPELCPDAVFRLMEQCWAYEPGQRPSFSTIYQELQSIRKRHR

STK3 Catalytic Domain = molecular target: T2, STK3 Catalytic Domain (Homo sapiens, UniProt Q13188); details: 2 µM protein, 10 µM inhibitor, average of 3 experiments, each in duplicate
T2 construct: For all of them, we expressed and purified the catalytic domain separately; His-tag; made in house; host or cells: Escherichia coli
T2 sequence (Q13188 27-278 limits assumed): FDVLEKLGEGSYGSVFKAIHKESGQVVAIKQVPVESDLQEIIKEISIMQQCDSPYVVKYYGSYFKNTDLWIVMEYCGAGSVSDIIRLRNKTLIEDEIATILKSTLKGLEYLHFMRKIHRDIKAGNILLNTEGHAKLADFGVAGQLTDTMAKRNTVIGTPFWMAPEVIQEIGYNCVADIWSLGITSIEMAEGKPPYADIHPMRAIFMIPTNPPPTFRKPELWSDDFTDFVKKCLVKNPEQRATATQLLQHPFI

FAK2 Catalytic Domain = molecular target: T3, FAK2 Catalytic Domain (Homo sapiens, UniProt Q14289); details: 2 µM protein, 10 µM inhibitor, average of 3 experiments, each in duplicate
T3 construct: For all of them, we expressed and purified the catalytic domain separately; His-tag; made in house; host or cells: Escherichia coli
T3 sequence (Q14289 425-683 limits assumed): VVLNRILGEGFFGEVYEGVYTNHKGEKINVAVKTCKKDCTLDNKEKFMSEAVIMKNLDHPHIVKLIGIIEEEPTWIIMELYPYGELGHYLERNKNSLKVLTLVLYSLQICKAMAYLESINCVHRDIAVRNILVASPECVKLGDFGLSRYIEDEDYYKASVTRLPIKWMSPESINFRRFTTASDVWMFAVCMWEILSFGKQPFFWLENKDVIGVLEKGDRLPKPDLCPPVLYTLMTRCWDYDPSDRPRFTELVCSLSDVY

CDK2 + Cyclin A = molecular target: T4, CDK2 + Cyclin A (Homo sapiens, UniProt P24941); details: CDK2 + Cyclin A; 2 µM protein, 10 µM inhibitor; average of 3 experiments, each in duplicate
T4 construct: CDK2 (P24941); 1–299; His-tag; made in house; host or cells: Escherichia coli

DMPK Catalytic Domain = molecular target: T5, DMPK Catalytic Domain (Homo sapiens, UniProt Q09013); details: 2 µM protein, 10 µM inhibitor, average of 3 experiments, each in duplicate
T5 construct: For all of them, we expressed and purified the catalytic domain separately; His-tag; made in house; host or cells: Escherichia coli
T5 sequence (Q09013 71-339 limits assumed): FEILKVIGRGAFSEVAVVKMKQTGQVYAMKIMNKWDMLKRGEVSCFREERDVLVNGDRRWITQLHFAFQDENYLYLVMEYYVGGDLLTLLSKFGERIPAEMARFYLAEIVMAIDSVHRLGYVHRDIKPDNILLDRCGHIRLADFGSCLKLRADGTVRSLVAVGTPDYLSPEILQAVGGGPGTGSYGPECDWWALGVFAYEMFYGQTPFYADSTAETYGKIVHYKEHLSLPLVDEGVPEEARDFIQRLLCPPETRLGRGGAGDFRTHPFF

CHK2 Catalytic Domain = molecular target: T6, CHK2 Catalytic Domain (Homo sapiens, UniProt O96017); details: 2 µM protein, 10 µM inhibitor, average of 3 experiments, each in duplicate
T6 construct: For all of them, we expressed and purified the catalytic domain separately; His-tag; made in house; host or cells: Escherichia coli
T6 sequence (O96017 220-486 limits assumed): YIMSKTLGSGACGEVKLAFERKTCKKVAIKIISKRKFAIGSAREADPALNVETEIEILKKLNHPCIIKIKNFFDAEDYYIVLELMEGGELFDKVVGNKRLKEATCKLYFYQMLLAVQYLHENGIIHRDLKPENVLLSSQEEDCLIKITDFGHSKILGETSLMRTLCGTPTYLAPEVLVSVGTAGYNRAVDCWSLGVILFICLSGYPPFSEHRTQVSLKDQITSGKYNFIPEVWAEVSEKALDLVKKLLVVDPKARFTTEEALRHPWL

CDK2 + Cyclin E = molecular target: T7, CDK2 + Cyclin E (Homo sapiens, UniProt P24941); details: CDK2 + Cyclin E; 2 µM protein, 10 µM inhibitor; average of 3 experiments, each in duplicate
T7 construct: CDK2 (P24941); 1–299; His-tag; made in house; host or cells: Escherichia coli

PAK7 Catalytic Domain = molecular target: T8, PAK7 Catalytic Domain (Homo sapiens, UniProt Q9P286); details: 2 µM protein, 10 µM inhibitor, average of 3 experiments, each in duplicate
T8 construct: For all of them, we expressed and purified the catalytic domain separately; His-tag; made in house; host or cells: Escherichia coli
T8 sequence (Q9P286 449-700 limits assumed): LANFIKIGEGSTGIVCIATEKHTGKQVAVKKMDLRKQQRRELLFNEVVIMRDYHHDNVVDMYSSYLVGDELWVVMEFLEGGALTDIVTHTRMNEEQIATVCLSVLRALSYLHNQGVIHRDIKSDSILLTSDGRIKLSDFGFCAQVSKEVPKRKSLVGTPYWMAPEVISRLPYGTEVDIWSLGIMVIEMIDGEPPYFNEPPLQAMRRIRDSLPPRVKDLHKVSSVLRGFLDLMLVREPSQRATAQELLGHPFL

PAK4 Catalytic Domain = molecular target: T9, PAK4 Catalytic Domain (Homo sapiens, UniProt O96013); details: 2 µM protein, 10 µM inhibitor, average of 3 experiments, each in duplicate
T9 construct: For all of them, we expressed and purified the catalytic domain separately; His-tag; made in house; host or cells: Escherichia coli
T9 sequence (O96013 321-572 limits assumed): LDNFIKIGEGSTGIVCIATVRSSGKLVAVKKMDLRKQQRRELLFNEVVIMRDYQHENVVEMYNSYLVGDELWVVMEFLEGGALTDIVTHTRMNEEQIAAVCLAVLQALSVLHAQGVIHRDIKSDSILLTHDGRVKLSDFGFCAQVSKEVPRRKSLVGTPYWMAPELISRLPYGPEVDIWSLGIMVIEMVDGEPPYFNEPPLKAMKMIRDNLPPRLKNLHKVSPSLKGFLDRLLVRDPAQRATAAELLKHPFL

[1] = molecular target: T10, PAK4 Catalytic Domain+PBD (Homo sapiens, UniProt O96013); details: 2 µM protein, 10 µM inhibitor, average of 3 experiments, each in duplicate
T10 construct: for 8, we also made a longer version containing one or more additional domains; His-tag; made in house; host or cells: Escherichia coli
T10 sequence (O96013 whole entry, the tested form may be a part): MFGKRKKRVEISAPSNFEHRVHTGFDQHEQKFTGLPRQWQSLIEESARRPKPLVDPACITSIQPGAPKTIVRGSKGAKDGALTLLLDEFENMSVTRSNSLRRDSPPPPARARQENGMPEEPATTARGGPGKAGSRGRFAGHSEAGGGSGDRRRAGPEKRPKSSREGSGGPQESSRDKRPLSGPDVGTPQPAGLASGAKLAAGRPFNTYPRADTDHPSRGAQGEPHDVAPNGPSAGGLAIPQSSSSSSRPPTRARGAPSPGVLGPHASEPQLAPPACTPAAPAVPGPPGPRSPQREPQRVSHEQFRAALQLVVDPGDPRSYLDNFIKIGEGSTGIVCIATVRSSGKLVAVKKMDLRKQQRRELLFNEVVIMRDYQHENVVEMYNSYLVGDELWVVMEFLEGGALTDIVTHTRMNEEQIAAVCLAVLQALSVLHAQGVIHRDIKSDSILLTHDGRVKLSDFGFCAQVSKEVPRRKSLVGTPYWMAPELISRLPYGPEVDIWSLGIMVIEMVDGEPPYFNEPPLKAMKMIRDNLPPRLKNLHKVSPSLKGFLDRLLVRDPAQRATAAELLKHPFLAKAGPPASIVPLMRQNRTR

[2] = molecular target: T11, STK3 Catalytic domain+SARAH (Homo sapiens, UniProt Q13188); details: 2 µM protein, 10 µM inhibitor, average of 3 experiments, each in duplicate
T11 construct: for 8, we also made a longer version containing one or more additional domains; His-tag; made in house; host or cells: Escherichia coli
T11 sequence (Q13188 1-491): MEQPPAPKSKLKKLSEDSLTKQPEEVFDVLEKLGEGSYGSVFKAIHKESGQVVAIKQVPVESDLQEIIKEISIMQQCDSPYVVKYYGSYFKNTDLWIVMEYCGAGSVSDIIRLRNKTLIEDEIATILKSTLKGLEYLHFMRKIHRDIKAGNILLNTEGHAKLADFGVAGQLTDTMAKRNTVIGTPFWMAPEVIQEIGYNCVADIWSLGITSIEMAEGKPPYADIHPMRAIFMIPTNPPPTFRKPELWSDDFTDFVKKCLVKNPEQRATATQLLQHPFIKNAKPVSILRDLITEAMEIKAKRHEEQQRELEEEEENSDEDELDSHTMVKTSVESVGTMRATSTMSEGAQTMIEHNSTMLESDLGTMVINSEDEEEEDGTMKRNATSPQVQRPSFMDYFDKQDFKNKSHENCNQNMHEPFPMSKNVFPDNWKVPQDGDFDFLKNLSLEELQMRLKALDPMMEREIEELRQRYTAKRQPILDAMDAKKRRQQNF

FES Catalytic Domain+SH2 = molecular target: T12, FES Catalytic Domain+SH2 (Homo sapiens, UniProt P07332); details: 2 µM protein, 10 µM inhibitor, average of 3 experiments, each in duplicate
T12 construct: for 8, we also made a longer version containing one or more additional domains; His-tag; made in house; host or cells: Escherichia coli
T12 sequence (P07332 448-822 limits assumed): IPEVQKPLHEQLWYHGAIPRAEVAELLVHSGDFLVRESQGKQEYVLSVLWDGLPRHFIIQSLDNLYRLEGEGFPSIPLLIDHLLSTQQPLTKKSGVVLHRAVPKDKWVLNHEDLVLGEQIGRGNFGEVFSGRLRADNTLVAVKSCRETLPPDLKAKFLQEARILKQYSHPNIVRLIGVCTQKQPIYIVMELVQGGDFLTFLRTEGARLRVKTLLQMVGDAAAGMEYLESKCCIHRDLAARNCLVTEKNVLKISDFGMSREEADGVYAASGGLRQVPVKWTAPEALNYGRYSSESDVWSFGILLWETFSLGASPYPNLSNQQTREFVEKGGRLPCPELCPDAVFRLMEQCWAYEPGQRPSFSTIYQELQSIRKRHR

AKT3 Catalytic Domain = molecular target: T13, AKT3 Catalytic Domain (Homo sapiens, UniProt Q9Y243); details: 2 µM protein, 10 µM inhibitor, average of 3 experiments, each in duplicate
T13 construct: AKT3 (Q9Y243); CD; His-tag; made in house; host or cells: Escherichia coli
T13 sequence (Q9Y243 122-479): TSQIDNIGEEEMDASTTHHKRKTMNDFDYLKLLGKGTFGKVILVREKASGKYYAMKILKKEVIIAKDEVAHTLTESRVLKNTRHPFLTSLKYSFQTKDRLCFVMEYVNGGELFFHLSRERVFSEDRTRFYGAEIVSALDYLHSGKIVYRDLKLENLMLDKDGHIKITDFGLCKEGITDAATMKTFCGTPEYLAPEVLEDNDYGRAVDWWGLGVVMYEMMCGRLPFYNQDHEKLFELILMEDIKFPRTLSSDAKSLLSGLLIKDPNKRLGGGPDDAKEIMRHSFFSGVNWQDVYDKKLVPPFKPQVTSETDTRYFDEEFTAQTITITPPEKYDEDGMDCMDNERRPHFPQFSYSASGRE

[3] = molecular target: SRC Catalytic Domain+SH2+SH3 (Homo sapiens, UniProt P12931); details: 2 µM protein, 10 µM inhibitor, average of 3 experiments, each in duplicate
Sequence of SRC Catalytic Domain+SH2+SH3 (P12931 84-523 limits assumed): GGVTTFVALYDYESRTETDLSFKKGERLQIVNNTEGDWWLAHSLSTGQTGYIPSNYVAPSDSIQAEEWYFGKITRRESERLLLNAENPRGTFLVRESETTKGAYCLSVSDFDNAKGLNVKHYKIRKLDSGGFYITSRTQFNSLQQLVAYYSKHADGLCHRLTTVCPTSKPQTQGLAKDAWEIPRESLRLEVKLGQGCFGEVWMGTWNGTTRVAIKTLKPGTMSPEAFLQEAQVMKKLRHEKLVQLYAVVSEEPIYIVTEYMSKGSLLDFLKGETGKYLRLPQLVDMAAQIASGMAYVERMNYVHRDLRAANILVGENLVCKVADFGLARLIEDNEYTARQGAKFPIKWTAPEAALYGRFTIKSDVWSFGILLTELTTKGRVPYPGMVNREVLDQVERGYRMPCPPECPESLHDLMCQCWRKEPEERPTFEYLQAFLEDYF

| Structure (SMILES) | Melting temperature (Tm) shift (FES Catalytic Domain) [degrees Celcius] | Melting temperature (Tm) shift (STK3 Catalytic Domain) [degrees Celcius] | Melting temperature (Tm) shift (FAK2 Catalytic Domain) [degrees Celcius] | Melting temperature (Tm) shift (CDK2 + Cyclin A) [degrees Celcius] | Melting temperature (Tm) shift (DMPK Catalytic Domain) [degrees Celcius] | Melting temperature (Tm) shift (CHK2 Catalytic Domain) [degrees Celcius] | Melting temperature (Tm) shift (CDK2 + Cyclin E) [degrees Celcius] | Melting temperature (Tm) shift (PAK7 Catalytic Domain) [degrees Celcius] | Melting temperature (Tm) shift (PAK4 Catalytic Domain) [degrees Celcius] | Melting temperature (Tm) shift [1] [degrees Celcius] | Melting temperature (Tm) shift [2] [degrees Celcius] | Melting temperature (Tm) shift (FES Catalytic Domain+SH2) [degrees Celcius] | Melting temperature (Tm) shift (AKT3 Catalytic Domain) [degrees Celcius] | Melting temperature (Tm) shift [3] [degrees Celcius] |
| --- | --- | --- | --- | --- | --- | --- | --- | --- | --- | --- | --- | --- | --- | --- |
| CCN1/C(=C/C(C)=O)Sc2ccc(OC)cc21 [Cdc2-Like Kinase Inhibitor, TG003] | 0.0 | 0.0 | 0.1 | 0.0 | 0.2 | 0.0 | 0.0 | 0.0 | – | – | – | – | – | – |
| O=C1NC(=O)c2c1c1c3ccccc3[nH]c1c1[nH]c3cc(Br)ccc3c21 [Cdk4 Inhibitor] | – | – | – | – | 0.8 | – | 0.7 | – | 0.7 | 0.4 | – | – | – | – |
| CC(C)n1cnc2c(NCc3ccccc3O)nc(NCCCO)nc21 [Cdk Inhibitor, p35] | 1.1 | 0.3 | 0.0 | 3.6 | 0.3 | 0.8 | 2.0 | 1.1 | 1.4 | 3.9 | 0.4 | 0.2 | – | – |
| CC(C)c1nn(-c2c(Cl)cccc2Cl)c2nc(Cc3ccc(OCCO)cc3)[nH]c(=O)c12 [Cdk/Crk Inhibitor] | 0.6 | 0.8 | 0.5 | 7.5 | 1.3 | 0.6 | 5.5 | 2.0 | 1.9 | 1.1 | 0.2 | 0.1 | 0.0 | – |
| O=C1NC(=O)c2c1c1c3ccccc3[nH]c1n1cncc21 [Isogranulatimide] | 1.6 | 2.6 | 0.8 | 0.1 | 0.5 | 4.5 | 0.2 | 0.2 | 0.4 | – | 1.3 | 0.5 | 2.9 | – |
| CC(C)(C)c1nc2c3cc[nH]c(=O)c3c3cc(F)ccc3c2[nH]1 [JAK Inhibitor I] | 0.1 | 2.1 | 3.0 | 0.0 | – | 8.8 | 0.0 | 0.2 | 0.2 | 0.2 | 3.2 | 0.1 | – | – |
| O=C1c2ccccc2-c2n[nH]c3cccc1c23 [JNK Inhibitor II] | 2.6 | 2.0 | 1.0 | 1.2 | 1.4 | 5.2 | 0.3 | 0.7 | 1.1 | 1.0 | 1.3 | 0.9 | 0.1 | – |
| O=C1c2ccccc2-c2nc3nnnn3nc21 [PDK1/Akt/Flt Dual Pathway Inhibitor] | 0.0 | – | – | 0.1 | – | 0.6 | 0.4 | – | – | – | 0.0 | – | 3.1 | – |
| O=C1NC(=O)C(=Cc2ccc3c(c2)OCO3)S1 [PI 3-Kγ Inhibitor VII] | 0.0 | 0.2 | 0.0 | – | 0.3 | 0.1 | 0.1 | – | – | – | – | – | 0.0 | – |
| O=C1Nc2ccc(Cl)cc2C1=Cc1cc(Cl)c(O)c(Cl)c1 [PKR Inhibitor, Negative Control] | 0.4 | 1.2 | – | – | 3.2 | 3.9 | 0.6 | 0.3 | 0.9 | 1.5 | 2.1 | 0.5 | – | – |
| O=c1c(O)c(-c2ccc(O)c(O)c2)oc2cc(O)c(O)c(O)c12 [Quercetagetin] | 0.1 | 0.2 | 0.2 | 0.2 | – | 1.1 | 0.7 | 0.1 | 0.0 | 0.3 | 0.5 | 0.1 | 2.5 | 0.0 |
